In brackets after ≈: the same amount, converted by molar mass. Several values for one entry are separate records, joined by “and”; a condition that tells them apart may be missing. Equal entries are not always repeated. Where two headings read alike, the source gives them in different places.
What was measured:
[1] = test system: Mycobacterium smegmatis mc2155 ATCC700084T; test: MIC, antibacterial specificity; format: cell-based
[2] = test system: Mycobacterium tuberculosis H37Rv ATCC27294T; test: MIC, antibacterial specificity; format: cell-based
E. coli AG100 = test: Time-kill kinetics (CFU); format: cell-based, Escherichia coli
Experimental: A drug-free control was included in the assay to monitor the normal growth of the strain. Cultures were sampled for CFU determination after 0, 1, 2, 3, 4, 5, 6, and 24 h of incubation at 37 °C with shaking. For CFU determination, 10-fold serial dilutions were made in a saline solution and 20 µl of each solution was placed onto the surface of a Mueller–Hinton agar plate. The colonies were counted after the incubation of the plates at 37 °C for 24 h. The limit of detection of the assay was 17 CFU/ml. Each assay was repeated at least twice.

[3] = test system: Klebsiella pneumoniae FF4891; test: MIC, antibacterial specificity; format: cell-based
[4] = test system: panel of selected bacterial species; test: Spectrum of activity, average MIC per bacterial group; format: cell-based
[5] = test system: Enterobacter aerogenes ATCC13048; test: MIC, antibacterial specificity; format: cell-based

## CCCOc1ccc(-c2cc(OCCN3CCNCC3)c3ccccc3n2)cc1 [PQQ4R, 4-(2-(piperazin-1-yl)ethoxy)-2-(4-propoxyphenyl) quinolone]
[1]
  MIC: 32 µg/mL (≈ 81.7 µM)
[2]
  MIC: 32 µg/mL (≈ 81.7 µM)
E. coli AG100
  time of exposure to reduce viability to zero: 3 h and 4 h
E. coli AG100; AG100
  MBC (minimal bactericidal concentration): 640 µM (≈ 251 µg/mL)
E. coli AG100; AG100, 80 μM (1/8 MIC)
  viability: 100%
E. coli AG100; AG100, 160 μM (1/4 MIC)
  viability: 98%
E. coli AG100; AG100, 320 μM (1/2 MIC)
  viability: 92%
E. coli AG100; AG100, 640 μM (MIC)
  viability: 0%
E. coli AG100; AG100, 1/2 MIC, T1 (1 h)
  CFU count Log10: 3.836
  CFU count Mean: 6.8E+03
E. coli AG100; AG100, 1/2 MIC, T2 (2 h)
  CFU count Log10: 3.5272
  CFU count Mean: 3.4E+03
E. coli AG100; AG100, 1/2 MIC, T3 (3 h)
  CFU count Log10: 3.503
  CFU count Mean: 3.2E+03
E. coli AG100; AG100, 1/2 MIC, T4 (4 h)
  CFU count Log10: 3.423
  CFU count Mean: 2.6E+03
E. coli AG100; AG100, 1/2 MIC, T5 (5 h)
  CFU count Log10: 2.79
  CFU count Mean: 6.2E+02
E. coli AG100; AG100, 1/2 MIC, T6 (6 h)
  CFU count Log10: 2.222
  CFU count Mean: 1.7E+02
E. coli AG100; AG100, 1/2 MIC, T24 (24 h)
  CFU count Mean: 2.0E+13
E. coli AG100; AG100, 2xMIC, T1 (1 h)
  CFU count - Strain dilution: 0
  CFU count - absolute values: 0
  CFU count Log10: 0
  CFU count Mean: 0.0E+00
E. coli AG100; AG100, 2xMIC, T2 (2 h)
  CFU count - Strain dilution: 0
  CFU count - absolute values: 0
  CFU count Log10: 0
  CFU count Mean: 0.0E+00
E. coli AG100; AG100, 2xMIC, T3 (3 h)
  CFU count - Strain dilution: 0
  CFU count - absolute values: 0
  CFU count Log10: 0
  CFU count Mean: 0.0E+00
E. coli AG100; AG100, 2xMIC, T4 (4 h)
  CFU count - Strain dilution: 0
  CFU count - absolute values: 0
  CFU count Log10: 0
  CFU count Mean: 0.0E+00
E. coli AG100; AG100, 2xMIC, T5 (5 h)
  CFU count - Strain dilution: 0
  CFU count - absolute values: 0
  CFU count Log10: 0
  CFU count Mean: 0.0E+00
E. coli AG100; AG100, 2xMIC, T6 (6 h)
  CFU count - Strain dilution: 0
  CFU count - absolute values: 0
  CFU count Log10: 0
  CFU count Mean: 0.0E+00
E. coli AG100; AG100, 2xMIC, T24 (24 h)
  CFU count - Strain dilution: 0
  CFU count - absolute values: 0
  CFU count Log10: 0
  CFU count Mean: 0.0E+00
E. coli AG100; AG100, 2× MIC
  time of exposure to reduce viability to zero: 1 h
E. coli AG100; AG100, 4xMIC, T1 (1 h)
  CFU count - Strain dilution: 0
  CFU count - absolute values: 0
  CFU count Log10: 0
  CFU count Mean: 0.0E+00
E. coli AG100; AG100, 4xMIC, T2 (2 h)
  CFU count - Strain dilution: 0
  CFU count - absolute values: 0
  CFU count Log10: 0
  CFU count Mean: 0.0E+00
E. coli AG100; AG100, 4xMIC, T3 (3 h)
  CFU count - Strain dilution: 0
  CFU count - absolute values: 0
  CFU count Log10: 0
  CFU count Mean: 0.0E+00
E. coli AG100; AG100, 4xMIC, T4 (4 h)
  CFU count - Strain dilution: 0
  CFU count - absolute values: 0
  CFU count Log10: 0
  CFU count Mean: 0.0E+00
E. coli AG100; AG100, 4xMIC, T5 (5 h)
  CFU count - Strain dilution: 0
  CFU count - absolute values: 0
  CFU count Log10: 0
  CFU count Mean: 0.0E+00
E. coli AG100; AG100, 4xMIC, T6 (6 h)
  CFU count - Strain dilution: 0
  CFU count - absolute values: 0
  CFU count Log10: 0
  CFU count Mean: 0.0E+00
E. coli AG100; AG100, 4xMIC, T24 (24 h)
  CFU count - Strain dilution: 0
  CFU count - absolute values: 0
  CFU count Log10: 0
  CFU count Mean: 0.0E+00
E. coli AG100; AG100, 8xMIC, T1 (1 h)
  CFU count - Strain dilution: 0
  CFU count - absolute values: 0
  CFU count Log10: 0
  CFU count Mean: 0.0E+00
E. coli AG100; AG100, 8xMIC, T2 (2 h)
  CFU count - Strain dilution: 0
  CFU count - absolute values: 0
  CFU count Log10: 0
  CFU count Mean: 0.0E+00
E. coli AG100; AG100, 8xMIC, T3 (3 h)
  CFU count - Strain dilution: 0
  CFU count - absolute values: 0
  CFU count Log10: 0
  CFU count Mean: 0.0E+00
E. coli AG100; AG100, 8xMIC, T4 (4 h)
  CFU count - Strain dilution: 0
  CFU count - absolute values: 0
  CFU count Log10: 0
  CFU count Mean: 0.0E+00
E. coli AG100; AG100, 8xMIC, T5 (5 h)
  CFU count - Strain dilution: 0
  CFU count - absolute values: 0
  CFU count Log10: 0
  CFU count Mean: 0.0E+00
E. coli AG100; AG100, 8xMIC, T6 (6 h)
  CFU count - Strain dilution: 0
  CFU count - absolute values: 0
  CFU count Log10: 0
  CFU count Mean: 0.0E+00
E. coli AG100; AG100, 8xMIC, T24 (24 h)
  CFU count - Strain dilution: 0
  CFU count - absolute values: 0
  CFU count Log10: 0
  CFU count Mean: 0.0E+00
E. coli AG100; AG100, MIC, T1 (1 h)
  CFU count Log10: 3.007
  CFU count Mean: 1.0E+03
E. coli AG100; AG100, MIC, T2 (2 h)
  CFU count Log10: 2.336
  CFU count Mean: 2.2E+02
E. coli AG100; AG100, MIC, T3 (3 h)
  CFU count Log10: 1.222
  CFU count Mean: 1.7E+01
E. coli AG100; AG100, MIC, T4 (4 h)
  CFU count - Strain dilution: 0
  CFU count - absolute values: 0
  CFU count Log10: 0
  CFU count Mean: 0.0E+00
E. coli AG100; AG100, MIC, T5 (5 h)
  CFU count - Strain dilution: 0
  CFU count - absolute values: 0
  CFU count Log10: 0
  CFU count Mean: 0.0E+00
E. coli AG100; AG100, MIC, T6 (6 h)
  CFU count - Strain dilution: 0
  CFU count - absolute values: 0
  CFU count Log10: 0
  CFU count Mean: 0.0E+00
E. coli AG100; AG100, MIC, T24 (24 h)
  CFU count - Strain dilution: 0
  CFU count - absolute values: 0
  CFU count Log10: 0
  CFU count Mean: 0.0E+00
E. coli AG100; AG100, half MIC
  reduction in bacterial viability: approx. 1 log
[3]
  MIC: >256 µg/mL
[4]; Gram-negative bacteria
  average MIC: ≥ 128 µg/mL
[4]; Gram-positive bacteria
  average MIC: 50 µg/mL
[4]; acid-fast bacteria
  average MIC: 32 µg/mL
[5]
  MIC: >256 µg/mL

— PMC5433425 (PeerJ, 2017)
